Measured values taken from patent US20260242478A1, “ANTIBODIES FOR TARGETING PSMA AND CD28 AND USES THEREOF” (Janux Therapeutics, Inc., priority 2023, published 2026).
Blank lines part the entries; values can stand above or below the sequence they belong to.

Legend:
[1] = target: anti-CD28 Fab (SEQ ID NOs: 696, 697); experiment: anti-CD28 Fab binding to peptides, ELISA; settings: anti-CD28 Fab
[2] = target: anti-CD28 scFv (disulfide) (SEQ ID NO: 10); experiment: anti-CD28 scFv (disulfide) binding to peptides, ELISA; settings: Table 27
Protocol: Peptides were evaluated for their ability to bind to ant-CD28 Fab (SEQ ID NOs: 696.697) or anti-CD28 scFv (disulfide) (SEQ ID NO: 10) in a standard ELISA format as described above.

[3] = target: anti-CD28 scFv harbored in Ab-15 binding to the CD28 antigen; experiment: Inhibition of Ab-15 binding to CD28 by peptides, competition ELISA; settings: Table 20; fixed Ab-15 pre-incubated with 0-100 μM titrated peptide, CD28 antigen coated plates
Protocol: (§1) Ab-15 fixed at I nanomolar (nM) concentration was pre-incubated with 0-100 micromolar (μM) titrated peptides. After a short pre-incubation period, the mixture of titrated peptide with fixed Ab-15 were added to the CD28 antigen coated plates. After a short incubation on the plates, bound Ab-15 was detected with a standard horse radish peroxidase conjugated secondary antibody.

[4] = target: Ab-15 (anti-CD28 scFv of SEQ ID NO: 9); experiment: Ab-15 (anti-CD28 scFv) binding to peptides, ELISA; set-up: species or system human; settings: Table 20; Ab-15 binding to plate-captured biotinylated peptide or CD28-biotin
Protocol: Ab-15 diluted in buffer was then added to the peptide captured plates. Bound antibody was detected using a standard horse radish peroxidase conjugate secondary antibody.

[5] = target: PSMA Fab (SEQ ID NOs: 19, 20); experiment: PSMA Fab binding to peptides, ELISA
Protocol: Peptides of Table 9 were evaluated for their ability to bind to PSMA Fab in a standard enzyme linked immunosorbent assay (ELISA) format. […] PSMA Fab diluted in buffer was then added to the peptide captured plates. Bound antibody was detected using a standard horse radish peroxidase conjugate secondary antibody.

[6] = target: PSMA Fab (SEQ ID NOs: 19, 20) binding to the PSMA antigen; experiment: Inhibition of PSMA Fab binding to PSMA by peptides, competition ELISA (incl. alanine scanning); settings: PSMA Fab fixed at 0.3 nM, peptide 0-100 μM
Protocol: as §1, with “PSMA Fab” for “Ab-15”, “0.3” for “I”, “PSMA” for “CD28”
The tables also designate each alanine mutation as tolerant (T), somewhat tolerant (ST), or intolerant (IT) based on changes in binding inhibition ability relative to the non-mutated peptide. Cys-5 and Cys-11 of peptide-179 and peptide-180 were not mutated.

[7] = system: PSMA Fab (SEQ ID NOs: 19, 20); experiment: Kinetic binding of peptides to PSMA Fab, BLI
Protocol: Kinetic binding of the peptides of Table 9 to PSMA Fab (SEQ ID NOs: 19, 20) was evaluated using biolayer interferometry (BLI). Briefly, biotinylated peptides were loaded onto a streptavidin coated Octet® V SAX biosensor, quenched in biocytin, and baselined in buffer. […] After a short association period, sensors were transferred into buffer and the dissociation of bound Ab-1 was measured. Association and dissociation signals were recorded in real time and analyzed using a 1:1 binding model within the instrument software. Analysis using a 1:1 binding model enabled the calculation of the on and off rate constant as well as affinity, Kn.

[8] = target: anti-CD28 Fab (SEQ ID NOs: 696, 697) binding to CD28 antigen; experiment: Inhibition of anti-CD28 Fab binding to CD28 by peptides, competition ELISA (incl. alanine scanning); settings: Table 25; anti-CD28 Fab fixed at 1 nM, 0-100 μM peptides
[9] = target: anti-CD28 scFv (SEQ ID NO: 9); experiment: Kinetic binding of anti-CD28 scFv to peptides, bio-layer interferometry (Octet RED96); settings: Table 36; anti-CD28 scFv titrated 100-12.5 nM, 200 nM peptide loaded
Protocol: (§2) Briefly, streptavidin biosensors were loaded with biotinylated peptides and baselined in buffer. […] After a short association period, sensors were transferred into buffer and the dissociation of bound anti-CD28 scFv was measured. The timing and steps of the experiment are shown in the accompanying table. Association and dissociation signals were recorded in real time and analyzed using a 1:1 binding model within the instrument software. Analysis using a 1:1 binding model enabled the calculation of the on and off rate constants as well as affinity, KD.
as §2, with “KD. FIGS. 70A-70F illustrate kinetic binding of anti-CD28 scFv binding to peptides as measured by Octet. FIGS. 70G-70U illustrate kinetic binding of peptides to the anti-CD28 scFv as measured by Octet.” for “KD.”

[10] = Table 38, PSMA Fab binding to biotinylated peptide, ELISA
[11] = Table 37, PSMA Fab binding to biotinylated peptide, ELISA

Sequence: ACDTYFAGMINECF [Peptide-79]
EC50 ([1]; Table 24): 97 nM
EC50 [2]: 73.2 nM

IC50 [3]: 4420 nM
EC50 [4]: 32.5 nM
Sequence: ADWCPRERWVDCFF [Peptide-19]

IC50 [3]: 3250 nM
EC50 [4]: 32.2 nM
Sequence: CFYAEYYDQVYSFC [Peptide-18]

Sequence: DCPWLSGFSRPLLC [Peptide-93]
EC50 ([1]; Table 24): > 1000 nM
EC50 [2]: > 1000 nM

Sequence: DCWWMFESYPGRCI [Peptide-86]
EC50 ([1]; Table 24): > 1000 nM
EC50 [2]: > 1000 nM

Sequence: ECHWSMWAVGHACF [Peptide-83]
EC50 ([1]; Table 24): > 1000 nM
EC50 [2]: > 1000 nM

Sequence: FMCLPQNPHPLCFK [Peptide-77]
EC50 ([1]; Table 24): > 1000 nM
EC50 [2]: > 1000 nM

EC50 [5, 10]: > 3000 nM
Sequence: FVCWTFGEHIKVCR [Peptide-186]
IC50 ([6]; Table 38): > 100000 nM

Sequence: GCQYPWAFDAMSCP [Peptide-80]
EC50 ([1]; Table 24): > 1000 nM
EC50 [2]: > 1000 nM

EC50 [5, 10]: > 3000 nM
Sequence: HCLGPALGPVDGDC [Peptide-189]
IC50 ([6]; Table 38): > 100000 nM

Sequence: IAVLCQPNWMCAGF [Peptide-180]
binding to the PSMA Fab [5]: strong binding
EC50 [5, 10]: 33 nM
Off rate t1/2 ([7]; Table 38, 1:1 binding model): <1 min
Off rate t1/2 ([7]; Table 39, 1:1 binding model): 0.75 min

Binding EC50 [5, 11]: high background
Sequence: ICQWIGATNAWVCY [Peptide-164]
IC50 ([6]; Table 37): > 100000 nM

EC50 [5, 10]: > 3000 nM
Sequence: IECAYMTDQRFWCW [Peptide-188]

EC50 [5, 10]: > 3000 nM
Sequence: ILCGLYEALVSECG [Peptide-187]
IC50 ([6]; Table 38): > 100000 nM

EC50 [5, 11]: > 1000 nM
Sequence: IRCVGEGHDLVCIF [Peptide-162]

EC50 [5, 10]: > 3000 nM
Sequence: IRCVGEGHDLVCIF [Peptide-184]
IC50 ([6]; Table 38): > 100000 nM

EC50 ([1]; Table 25): > 1000 nM
IC50 [8]: > 100000 nM
Sequence: LCAAGFTYPWPLCL [Peptide-155]

EC50 ([1]; Table 25): > 1000 nM
IC50 [8]: > 100000 nM
Sequence: LCKPGVPYKWPTCL [Peptide-156]

binding to the PSMA Fab [5]: strong binding
EC50 [5, 10]: 5.9 nM
EC50 ([5]; Table 39, PSMA Fab binding to biotinylated peptide, ELISA): 120 nM
Off rate t1/2 ([7]; Table 38, 1:1 binding model): <1 min
Off rate t1/2 ([7]; Table 39, 1:1 binding model): 1.09 min
Sequence: LMKWCTPRWMCAAE [Peptide-179]

Off rate t1/2 ([7]; Table 39, 1:1 binding model): <1 min
Sequence: MCQWDELNYWMDCD [Peptide-202]

Off rate t1/2 ([7]; Table 39, 1:1 binding model): <1 min
Sequence: MCQWDKINYWMDCD [Peptide-205]

Sequence: MDWCPRDLWVHCFA [Peptide-41]
EC50 ([1]; Table 24): 490 nM
EC50 [2]: 98.5 nM
Kd [9]: 42.3 nM
kdis [9]: 0.00154 s⁻¹
kon [9]: 36400 M⁻¹ s⁻¹

EC50 [5, 11]: > 1000 nM
Sequence: MEYCSFHRFTCVLW [Peptide-174]

EC50 [5, 11]: > 1000 nM
Sequence: NAHCWLWVPAHCRV [Peptide-167]
IC50 ([6]; Table 37): > 100000 nM

EC50 [5, 11]: > 1000 nM
Sequence: NCFFAADIHWNFCT [Peptide-169]

EC50 [5, 11]: > 1000 nM
Sequence: NCWWHDFRAGHVVC [Peptide-161]

Sequence: PDCHTILFKPWCVR [Peptide-90]
EC50 ([1]; Table 24): > 1000 nM
EC50 [2]: > 1000 nM

Sequence: PDCQTILFKPWCVR [Peptide-78]
EC50 ([1]; Table 24): > 1000 nM
EC50 [2]: > 1000 nM

EC50 [5, 11]: > 1000 nM
Sequence: PDCVYHSFWGYSCR [Peptide-178]

EC50 [5, 10]: 3 nM
Sequence: PELRCVPFWMCSFN [Peptide-181]

EC50 [5, 11]: > 1000 nM
Sequence: PLCGTEEVWWECRL [Peptide-166]
